Reference: PubChem BioAssay AID330 (DTP/NCI, 2004)
Several values for one entry are separate records, joined by “and”; a condition that tells them apart may be missing. Equal entries are not always repeated. Inconclusive results and toxic doses are left out. Square brackets hold non-standard residues; d marks the D form. Peptide text beside a SMILES is read from it. Abu = CC[CH](N)C(=O)O

System: P388 leukemia ip, CD2F1 mice, survival T/C
Test: NCI In Vivo Anticancer Drug Screen. Data for tumor model P388 Leukemia (intraperitoneal) in CD2F1 (CDF1) mice
Conditions: endpoint: median survival time, higher = longer survival
Summary of the method: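 Mice carrying the transplanted tumor received test compound or vehicle. Survival was recorded in each group, and the value is the treated-group measurement divided by that of the vehicle-treated control group.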

[1] = dose: 6.25 mg/kg/injection, schedule: Q01DX009 (ip), vehicle: Klucel (hydroxypropylcellulose) (HPC)
[2] = dose: 12.5 mg/kg/injection, schedule: Q01DX009 (ip), vehicle: Klucel (hydroxypropylcellulose) (HPC)
[3] = dose: 25.0 mg/kg/injection, schedule: Q01DX009 (ip), vehicle: Klucel (hydroxypropylcellulose) (HPC)
[4] = dose: 50.0 mg/kg/injection, schedule: Q01DX009 (ip), vehicle: saline with Tween-80
[5] = dose: 100.0 mg/kg/injection, schedule: Q01DX009 (ip), vehicle: Klucel (hydroxypropylcellulose) (HPC)
[6] = dose: 200.0 mg/kg/injection, schedule: Q01DX009 (ip), vehicle: Klucel (hydroxypropylcellulose) (HPC)
[7] = dose: 200.0 mg/kg/injection, schedule: Q01DX009 (ip), vehicle: saline with Tween-80
[8] = dose: 100.0 mg/kg/injection, schedule: Q04DX003 (ip), vehicle: other
[9] = dose: 50.0 mg/kg/injection, schedule: Q01DX009 (ip), vehicle: Klucel (hydroxypropylcellulose) (HPC)
[10] = dose: 50.0 mg/kg/injection, schedule: Q01DX009 (ip), vehicle: saline
[11] = dose: 100.0 mg/kg/injection, schedule: Q04DX002 (ip), vehicle: Klucel (hydroxypropylcellulose) (HPC)
[12] = dose: 100.0 mg/kg/injection, schedule: Q04DX003 (ip), vehicle: Klucel (hydroxypropylcellulose) (HPC)
[13] = dose: 200.0 mg/kg/injection, schedule: Q04DX003 (ip), vehicle: Klucel (hydroxypropylcellulose) (HPC)
[14] = dose: 50.0 mg/kg/injection, schedule: Q01DX005 (ip), vehicle: saline with Tween-80
[15] = dose: 100.0 mg/kg/injection, schedule: Q01DX005 (ip), vehicle: saline with Tween-80
[16] = dose: 200.0 mg/kg/injection, schedule: Q01DX005 (ip), vehicle: saline with Tween-80

CCC(N)C(=O)NC(C(N)=O)C(C)C (stereo not drawn) (H-[Abu]-Val-NH2; configuration not given here)
T/C (dose: 50.0 mg/kg/injection, schedule: Q01DX005 (ip), vehicle: saline): 102 % of control | T/C (dose: 100.0 mg/kg/injection, schedule: Q01DX005 (ip), vehicle: saline): 101 % of control | T/C (dose: 200.0 mg/kg/injection, schedule: Q01DX005 (ip), vehicle: saline): 104 % of control

O=C(O)c1c2c(nc3ccccc13)Cc1ccccc1-2
T/C [1]: 97 % of control | T/C (dose: 6.25 mg/kg/injection, schedule: Q01DX009 (ip), vehicle: water): 101 % of control | T/C [2]: 98 % of control | T/C (dose: 12.5 mg/kg/injection, schedule: Q01DX009 (ip), vehicle: water): 99 % of control and 109 % of control | T/C [3]: 106 % of control | T/C (dose: 25.0 mg/kg/injection, schedule: Q01DX009 (ip), vehicle: water): 104 % of control and 110 % of control and 114 % of control | T/C [4]: 110 % of control | T/C (dose: 50.0 mg/kg/injection, schedule: Q01DX009 (ip), vehicle: water): 115 % of control and 121 % of control | T/C [5]: 160 % of control and 169 % of control | T/C (dose: 100.0 mg/kg/injection, schedule: Q01DX009 (ip), vehicle: water): 166 % of control and 172 % of control | T/C [6]: 172 % of control and 179 % of control | T/C [7]: 181 % of control | T/C (dose: 200.0 mg/kg/injection, schedule: Q01DX009 (ip), vehicle: water): 106 % of control

COC(=O)C1(C(C)C(=O)c2ccc(Cl)cc2)NC(=S)NC(=O)C1C#N (stereo not drawn)
T/C (dose: 60.0 mg/kg/injection, schedule: Q01DX005 (ip), vehicle: saline): 104 % of control | T/C (dose: 120.0 mg/kg/injection, schedule: Q01DX005 (ip), vehicle: saline): 106 % of control | T/C (dose: 240.0 mg/kg/injection, schedule: Q01DX005 (ip), vehicle: saline): 108 % of control

CCCCCOC(=O)CN(CC(=O)OCCCCC)c1ccc(C=O)cc1
T/C (dose: 25.0 mg/kg/injection, schedule: Q04DX003 (ip), vehicle: other): 95 % of control | T/C (dose: 50.0 mg/kg/injection, schedule: Q04DX003 (ip), vehicle: other): 100 % of control | T/C [8]: 100 % of control

CP1(=O)CCC2=C1CCc1cc(O)ccc12 (stereo not drawn)
T/C [1]: 100 % of control | T/C [2]: 100 % of control | T/C [3]: 103 % of control and 106 % of control

CC(C)=CCC/C(C)=C/CC/C(C)=C/CC/C(C)=C/CC/C(C)=C/CC/C(C)=C/CC/C(C)=C/CC/C(C)=C/CC/C(C)=C/CO
T/C (dose: 6.25 mg/kg/injection, schedule: Q01DX009 (ip), vehicle: saline + alcohol): 98 % of control | T/C (dose: 12.5 mg/kg/injection, schedule: Q01DX009 (ip), vehicle: saline + alcohol): 96 % of control | T/C (dose: 25.0 mg/kg/injection, schedule: Q01DX009 (ip), vehicle: saline + alcohol): 99 % of control | T/C (dose: 50.0 mg/kg/injection, schedule: Q01DX009 (ip), vehicle: saline + alcohol): 107 % of control | T/C (dose: 100.0 mg/kg/injection, schedule: Q01DX009 (ip), vehicle: saline + alcohol): 96 % of control | T/C (dose: 200.0 mg/kg/injection, schedule: Q01DX009 (ip), vehicle: saline + alcohol): 109 % of control

C=C(c1ccccc1)c1ccccc1-c1ccccc1C(=C)c1ccccc1
T/C (dose: 100.0 mg/kg/injection, schedule: Q04DX003 (ip), vehicle: saline): 99 % of control | T/C (dose: 200.0 mg/kg/injection, schedule: Q04DX003 (ip), vehicle: saline): 100 % of control | T/C (dose: 400.0 mg/kg/injection, schedule: Q04DX003 (ip), vehicle: saline): 98 % of control

CCN(CC)c1c(C)c(-c2ccccc2)oc(=O)c1-c1ccccc1
T/C [9]: 105 % of control | T/C [5]: 100 % of control | T/C [6]: 100 % of control

CCCCCOCc1cc(C)no1
T/C (dose: 60.0 mg/kg/injection, schedule: Q01DX005 (ip), vehicle: saline with Tween-80): 104 % of control | T/C (dose: 120.0 mg/kg/injection, schedule: Q01DX005 (ip), vehicle: saline with Tween-80): 109 % of control | T/C (dose: 240.0 mg/kg/injection, schedule: Q01DX005 (ip), vehicle: saline with Tween-80): 104 % of control

CCCCCCCCCCCC[S][Sn]([CH2]CCC)([S]CCCCCCCCCCCC)[S]CCCCCCCCCCCC
T/C [10]: 87 % of control | T/C (dose: 100.0 mg/kg/injection, schedule: Q01DX009 (ip), vehicle: saline): 99 % of control | T/C (dose: 200.0 mg/kg/injection, schedule: Q01DX009 (ip), vehicle: saline): 95 % of control

CN(C)C(=O)C[n+]1ccccc1
T/C (dose: 12.5 mg/kg/injection, schedule: Q01DX009 (ip), vehicle: saline): 99 % of control | T/C (dose: 25.0 mg/kg/injection, schedule: Q01DX009 (ip), vehicle: saline): 98 % of control | T/C [10]: 101 % of control

CN1C(=O)C(=O)N(Cc2ccc(CN3C(=O)C(=O)N(C)C3=O)cc2)C1=O
T/C [9]: 101 % of control | T/C [5]: 103 % of control | T/C [6]: 100 % of control

COc1cc2cc(c1Cl)N(C)C(=O)CC(OC(=O)C(C)N(C)C(=O)C(C)C)C1(C)OC1C(C)C1CC(O)(NC(=O)O1)C(OC)/C=C/C=C(C)C2 (stereo not drawn)
T/C (dose: 0.1 micrograms/kg/injection, schedule: Q01DX009 (ip), vehicle: saline): 105 % of control | T/C (dose: 0.2 micrograms/kg/injection, schedule: Q01DX009 (ip), vehicle: saline): 115 % of control | T/C (dose: 3.1 micrograms/kg/injection, schedule: Q01DX009 (ip), vehicle: saline + alcohol): 157 % of control | T/C (dose: 3.1 micrograms/kg/injection, schedule: Q01DX009 (ip), vehicle: saline): 150 % of control | T/C (dose: 6.3 micrograms/kg/injection, schedule: Q01DX009 (ip), vehicle: saline + alcohol): 167 % of control | T/C (dose: 6.3 micrograms/kg/injection, schedule: Q01DX009 (ip), vehicle: saline): 161 % of control | T/C (dose: 12.5 micrograms/kg/injection, schedule: Q01DX009 (ip), vehicle: saline + alcohol): 150 % of control

CC1(C)COSOC1
T/C (dose: 100.0 mg/kg/injection, schedule: Q01DX001 (ip), vehicle: Klucel (hydroxypropylcellulose) (HPC)): 98 % of control | T/C (dose: 200.0 mg/kg/injection, schedule: Q01DX001 (ip), vehicle: Klucel (hydroxypropylcellulose) (HPC)): 104 % of control | T/C (dose: 400.0 mg/kg/injection, schedule: Q01DX001 (ip), vehicle: Klucel (hydroxypropylcellulose) (HPC)): 104 % of control

COc1ccc(/C=C(/C#N)c2ccccc2)cc1
T/C [8]: 100 % of control | T/C (dose: 200.0 mg/kg/injection, schedule: Q04DX003 (ip), vehicle: other): 100 % of control | T/C (dose: 400.0 mg/kg/injection, schedule: Q04DX003 (ip), vehicle: other): 104 % of control

CC1(C)C=Cc2cc3c(cc2O1)OC[C@H]1c2cc4c(cc2O[C@@H]31)OCO4
T/C (dose: 25.0 mg/kg/injection, schedule: Q04DX002 (ip), vehicle: Klucel (hydroxypropylcellulose) (HPC)): 97 % of control | T/C (dose: 50.0 mg/kg/injection, schedule: Q04DX002 (ip), vehicle: Klucel (hydroxypropylcellulose) (HPC)): 100 % of control | T/C [11]: 100 % of control | T/C (dose: 400.0 mg/kg/injection, schedule: Q04DX002 (ip), vehicle: Klucel (hydroxypropylcellulose) (HPC)): 89 % of control

CCCCCCCCCCCC(=O)OCCS(=O)(=O)CCOC(=O)CCCCCCCCCCC
T/C [12]: 104 % of control | T/C [13]: 103 % of control | T/C (dose: 400.0 mg/kg/injection, schedule: Q04DX003 (ip), vehicle: Klucel (hydroxypropylcellulose) (HPC)): 99 % of control

CS(=O)C/C(=C/CCCl)c1ccc(F)cc1 (stereo not drawn)
T/C [4]: 101 % of control | T/C (dose: 100.0 mg/kg/injection, schedule: Q01DX009 (ip), vehicle: saline with Tween-80): 105 % of control | T/C [7]: 96 % of control

N#CC1CCC(c2ccccc2)(c2ccccc2)C1=O (stereo not drawn)
T/C [12]: 94 % of control | T/C [13]: 95 % of control

CCCCCNCC(=O)N1CCCC1C(=O)OC(C)(C)C (stereo not drawn)
T/C [14]: 97 % of control | T/C [15]: 105 % of control | T/C [16]: 103 % of control

CCCCN(CCCC)C(=S)C(O)(c1ccccc1)c1ccccc1
T/C [9]: 95 % of control | T/C [5]: 91 % of control | T/C [6]: 90 % of control

COc1cc(/C=N/O)c(SC)cc1OC
T/C [11]: 110 % of control | T/C (dose: 200.0 mg/kg/injection, schedule: Q04DX002 (ip), vehicle: Klucel (hydroxypropylcellulose) (HPC)): 111 % of control

CC(=O)C(C(=O)Nc1cccc2ccccc12)C(C)=NCCN=C(C)C(C(C)=O)C(=O)Nc1cccc2ccccc12.[Cu] (stereo not drawn)
T/C [14]: 94 % of control | T/C [15]: 96 % of control | T/C [16]: 96 % of control

CCN(CC)c1ccc(N=C(NC#N)SC)cc1
T/C [9]: 104 % of control | T/C [5]: 103 % of control | T/C [6]: 106 % of control
